Reference: patent US20260091136A1, “USING ENHO GENE THERAPY TO TREAT CARDIOMETABOLIC DISEASE” (University of Pittsburgh-of the Commonwealth System of …, priority 2023, published 2026)
“Also recorded” adds a separate entry of the source.

Key:
Format in all cases: in vivo, C57BL/6J mice
[1] = test system: hearts from control HFpEF and Adropin treated HFpEF mice; experiment: Bulk RNA sequencing of hearts, HFpEF vs HFpEF+Adropin; details: heart bulk RNA-seq
Text: (§1) Animal Care and Use. Male C57BL/6J 8-week-old mice were obtained from the Jackson Laboratory and maintained on chow for 4 weeks to acclimate to their new environment. Animals were housed in the University of Pittsburgh animal facility under standard conditions with ad libitum access to water and food and maintained on a constant 12-hour light/dark cycle. At 12 weeks of age, the mice were exposed to normal chow (Chow; 60% carbohydrate, 26% protein, 14% fat), or a combination of high-fat diet (HFD; 20% carbohydrate, 20% protein, 60% fat) plus No-nitro-L-arginine methyl ester (L-NAME: 0.5 g/L) supplemented in their drinking water after adjusting the pH to 7.4 with 1N NaOH to induce HFpEF [10]. For cohort 1, the mice were subject to the HFpEF diet for 15 weeks. For cohort 2, after 8 weeks of diet, mice were randomly assigned to a control or treatment group receiving daily intraperitoneal injections of either vehicle or recombinant adropin at 450 nmol/kg animal weight prepared in PBS with 0.1% BSA for the remaining 5 weeks of the study. L-NAME supplemented drinking water was changed weekly and adropin was made fresh and sterile filtered before each use.
Transcriptomics. Total RNA was isolated from myocardial LV and hepatic tissue using the RNeasy Plus Mini Kit. Approximately 2 μg RNA was used for bulk RNA sequencing performed by Azenta/GENEWIZ based on company recommendations to identify differential gene expression patterns between the experimental groups.

[2] = test system: hexosamine biosynthesis pathway (HBP); experiment: Metabolomics of hearts, HFpEF vs HFpEF+Adropin; details: heart; for cardiac hexose and pyruvate levels: Adropin-treated HFpEF mice; for hexosamine biosynthesis pathway (metabolites related to UDP-GlcNAc biosynthesis), untargeted BioCyc pathway analysis: vehicle-treated vs adropin-treated HFpEF groups
Text: as §1
Quantitative Metabolomics. Metabolic quenching and polar metabolite pool extraction was performed by adding ice cold 80% methanol (aqueous) at a ratio of 1:15 wt input tissue:vol. (13 C1)-creatinine, (D3)-taurine, (D3)-lactate and (D3)-alanine were added to the sample lysates as an internal standard for a final concentration of […]. Samples are homogenized using an MP Bio FastPrep system using Matrix D (ceramic sphere) for 60 seconds at 60 hz. The supernatant was then cleared of protein by centrifugation at 16,000 g. 2 μL of cleared supernatant was subjected to online LC-MS analysis. Analyses were performed by untargeted liquid chromatography-high-resolution mass spectrometry (LC-HRMS). Briefly, samples were injected via a Thermo Vanquish UHPLC and separated over a reversed phase. Thermo HyperCarb porous graphite column (2.1×100 mm, […]) maintained at 55° C. For the 20 min LC gradient, the mobile phase consisted of the following: solvent A (water/0.1% FA) and solvent B (ACN/0.1% FA). The gradient was the following: 0-1 min 1% B, increase to 15% B over 5 min, continue increasing to 98% B over 5 min, hold at 98% B for five min, re-equillibrate at 1% B for five min. The Thermo IDX tribrid mass spectrometer was operated in both positive and negative ion mode, scanning in ddMS2 mode (2 scans) from 70 to 800 m/z at 120,000 resolution with an AGC target of 2e5 for full scan, 2e4 for ms2 scans using HCD fragmentation at stepped 15, 35, 50 collision energies. Source ionization setting was 3.0 and 2.4 kV spray voltage, respectively, for positive and negative mode. Source gas parameters were 35 sheath gas, 12 auxiliary gas at 320° C., and 8 sweep gas. Calibration was performed prior to analysis using the Pierce™ FlexMix Ion Calibration Solutions. Integrated peak areas were then extracted manually using Quan Browser (Thermo Fisher Xcalibur ver. 2.7). Untargeted differential comparisons were performed using Compound Discoverer 3.0 to generate a ranked list of significant compounds with tentative identifications from BioCyc, KEGG, and internal compound databases. Purified standards were then purchased and compared in retention time, m/z, along with ms2 fragmentation patterns to validate the identity of significant hits.

[3] = test system: hexosamine biosynthesis pathway (HBP); experiment: Immunoblotting of cardiac proteins (O-GlcNAc, GFAT, OGT, OGA, CD36, PDK4, PLIN5); details: heart; for CD36 abundance: to levels observed in chow mice; for total cardiac protein O-GlcNAcylation: to levels observed in chow mice (P=0.06 in b192)
Text: as §1
Protein Isolation and Immunoblotting. Heart tissues were rapidly harvested following euthanasia, weighed, RV discarded and LV flash-frozen in liquid nitrogen. For protein isolation, tissues were minced and lysed in CHAPS buffer (1% CHAPS, 150 mM NaCl, 10 mM HEPES, pH 7.4) using a VWR 4-Place Mini Bead Mill, then incubated on ice for ˜2.5 h. Homogenates were spun at 10,000 g at 4° C. for 10 min, and the supernatants collected for immunoblotting. For immunoblotting, protein lysates were quantitated using a BioDrop LITE Analyzer, prepared in LDS sample buffer, separated using Bolt SDS-PAGE 4-12% or 12% Bis-Tris Plus gels, and transferred to nitrocellulose membranes. Membranes were blocked using SuperBlock (PBS) Blocking Buffer and incubated overnight in the following primary antibodies: rabbit PDK4 (PA5-13776); mouse 0-GlcNAc (9875), rabbit GFAT (D12F4), rabbit OGT (D1D8Q), rabbit OGA (E9C5U), rabbit GAPDH (2118S); rabbit CD36 (18836-1-AP), rabbit CPT1b (22170-1-AP), rabbit LCAD (17526-1-AP), and GCN5L1 as previously reported (Scott et al., 2012). Protein loading was confirmed using GAPDH as a loading control. Fluorescent […] or anti-rabbit secondary antibodies (red, 700 nm; green, 800 nm) were used to detect expression levels. Images were obtained using Licor Odyssey CLx System and protein densitometry was measured using the LiCor Image Studio Lite Ver. 5.2 Software.

[4] = Adropin-treated HFpEF mice, listed as adropin

“Adropin: recombinant Adropin peptide hormone encoded by the ENHO gene; full-length (SEQ ID NO: 1) or cleaved product of amino acids 34-76 (SEQ ID NO: 2) (CHSRSADVDSLSESSPNSSPGPCPEKAPPPQKPSHEGSYLLQP)” was tested, and the “expression of extracellular matrix remodeling/fibrosis (e.g. Comp, Col12a1) and natriuretic peptide (e.g. Nppa) genes” value ([1]; Adropin-treated vs HFpEF mice) was “decreased expression; also recorded: downregulated”, the “decrease in extracellular matrix remodeling transcripts (Col1a1, Col3a1, Col5a1, Mmp2)” value ([1]; adropin-treated vs vehicle-treated HFpEF mice) was > 2 fold and the metabolic genes ([1]; between HFpEF and Adropin groups) was “no widespread changes”. The “cardiac hexose and pyruvate levels” value [2] was “trend towards decreased”, the “cardiac hexose and pyruvate levels” value ([2]; listed as adropin) was “trend towards restored” and the “abundance of metabolites used to generate UDP-GlcNAc (GlcNAc-6-P, uridine, coenzyme A)” value ([2]; relative to HFpEF mice) was “significant increase”. For the same substance, the “hexosamine biosynthesis pathway (metabolites related to UDP-GlcNAc biosynthesis), untargeted BioCyc pathway analysis” value [2] was “major metabolomic differences; also recorded: modulated”, the “hexosamine biosynthesis pathway (metabolites related to UDP-GlcNAc biosynthesis), untargeted BioCyc pathway analysis” value ([2]; listed as adropin) was “major metabolomic difference; also recorded: inhibits” and the PDK4 enzyme expression [3] was “no observed changes”. For the same substance, the “inhibition of cardiac protein O-GlcNAcylation by mediating expression of OGT and OGA” value [3] was “did not inhibit”, the GFAT expression ([3]; Adropin-treated HFpEF mice) was “did not reduce” and the CD36 abundance ([3]; Adropin-treated HFpEF mice) was “restored”. The “total cardiac protein O-GlcNAcylation” value ([3]; Adropin-treated HFpEF mice) was “restored; also recorded: decrease”, the “total cardiac protein O-GlcNAcylation” value [3, 4] was “restored” and the CD36 abundance [3, 4] was “restored; also recorded: significantly attenuated”. The “PLIN5 expression (aberrant fatty acid utilization)” value ([3]; increased in HFpEF vs chow) was “corrected”.
